The IC50 is the midpoint of a concentration-inhibition curve. The low end stands for greater potency in that assay, the high end for weaker potency in that assay.

This is an account of results in patent US20230181536A1, “ANTICANCER COMBINATION THERAPY WITH N-(1-ACRYLOYL-AZETIDIN-3-YL)-2-((1H-INDAZOL-3-YL)AMINO)METHYL)-1H-IMIDAZOLE-5-CARBOXAMIDE INHIBITOR OF KRAS-G12C” (TAIHO PHARMACEUTICAL CO., LTD., priority 2020, published 2023).

The target of this assay is T1, KRAS G12C (Homo sapiens, UniProt P01116, G12C).
T1 construct: KRAS G12C (amino acid region: 1-169)
T1 sequence (P01116 1-169 isoform P01116-2 G12C): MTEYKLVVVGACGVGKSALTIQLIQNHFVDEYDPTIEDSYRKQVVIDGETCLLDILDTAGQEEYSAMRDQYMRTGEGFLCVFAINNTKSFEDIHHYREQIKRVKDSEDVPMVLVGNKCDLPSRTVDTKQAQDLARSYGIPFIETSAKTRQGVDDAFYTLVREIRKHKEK
Put plainly: Inhibitory activity on the KRAS G12C nucleotide (GDP-GTP) exchange reaction. The assay is classed as biochemical. The settings on record: Bodipy FL GDP-bound KRAS G12C 25 nM; preincubation at 25° C. for 4 hours; SOS1 100 nM, GppNHp 1 μM, reaction for 30 minutes. The procedure, abridged:
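Bodipy FL-GDP-loaded KRAS G12C (aa 1-169, 25 nM) preincubated with compound 4 h at 25 °C in pH 7.5 Tris buffer, 5% DMSO; exchange started with SOS1 (aa 564-1049, 100 nM) and 1 μM GppNHp for 30 min. Fluorescence change (ex 485/em 520 nm) normalized to DMSO and no-GppNHp controls; IC50 calculated.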

Compound `C=CC(=O)N1C[C@@H](CC)[C@@H](NC(=O)c2c(C)nc(CNc3n[nH]c4cc(Cl)c(C(C)(C)C)cc34)n2C)C1` [Example 69, N-((3R,4R)-1-acryloyl-4-ethylpyrrolidin-3-yl)-2-(((5-(tert-butyl)-6-chloro-1H-indazol-3-yl)amino)methyl)-1,4-dimethyl-1H-imidazole-5-carboxamide] showed an IC50 of 6650 nM.

Compound `C=CC(=O)N1C[C@H](NC(=O)c2c(C(F)F)nc(CNc3n[nH]c4cc(Cl)c(C(C)(C)C)cc34)n2C)[C@@H](F)C1` [Example 70, N-((3S,4S)-1-acryloyl-4-fluoropyrrolidin-3-yl)-2-(((5-(tert-butyl)-6-chloro-1H-indazol-3-yl)amino)methyl)-4-(difluoromethyl)-1-methyl-1H-imidazole-5-carboxamide] returned an IC50 of 79 nM. With `C=CC(=O)N1C[C@@H](C)[C@@H](NC(=O)c2c(C(F)F)nc(CNc3n[nH]c4cc(Cl)c(C(C)(C)C)cc34)n2C)C1` [Example 71, N-((3R,4R)-1-acryloyl-4-methylpyrrolidin-3-yl)-2-(((5-(tert-butyl)-6-chloro-1H-indazol-3-yl)amino)methyl)-4-(difluoromethyl)-1-methyl-1H-imidazole-5-carboxamide], the IC50 came out at 117 nM. Consider `C=CC(=O)N1CC[C@@H](NC(=O)c2c(F)nc(CNc3n[nH]c4cc(Cl)c(C(C)(C)C)cc34)n2C)C1` [Example 72, (R)-N-(1-acryloylpyrrolidin-3-yl)-2-(((5-(tert-butyl)-6-chloro-1H-indazol-3-yl)amino)methyl)-4-fluoro-1-methyl-1H-imidazole-5-carboxamide], for which the IC50 turned out to be 71 nM. Consider `C=CC(=O)N1CC[C@@H](NC(=O)c2c(Cl)nc(CNc3n[nH]c4cc(Cl)c(C(C)(C)C)cc34)n2C)C1` [Example 73, (R)-N-(1-acryloylpyrrolidin-3-yl)-2-(((5-(tert-butyl)-6-chloro-1H-indazol-3-yl)amino)methyl)-4-chloro-1-methyl-1H-imidazole-5-carboxamide], for which 52 nM corresponded to half-maximal inhibition (IC50). The compound `C=CC(=O)N1C[C@@H](C)[C@@H](NC(=O)c2c(F)nc(CNc3n[nH]c4cc(Cl)c(C(C)(C)C)cc34)n2C)C1` [Example 74, N-((3R,4R)-1-acryloyl-4-methylpyrrolidin-3-yl)-2-(((5-(tert-butyl)-6-chloro-1H-indazol-3-yl)amino)methyl)-4-fluoro-1-methyl-1H-imidazole-5-carboxamide] gave an IC50 of 36 nM. Next, `C=CC(=O)N1C[C@H](NC(=O)c2c(F)nc(CNc3n[nH]c4cc(Cl)c(C(C)(C)C)cc34)n2C)[C@@H](F)C1` [Example 75, N-((3S,4S)-1-acryloyl-4-fluoropyrrolidin-3-yl)-2-(((5-(tert-butyl)-6-chloro-1H-indazol-3-yl)amino)methyl)-4-fluoro-1-methyl-1H-imidazole-5-carboxamide]: 16 nM; `C=CC(=O)N1C[C@H](NC(=O)c2c(Cl)nc(CNc3n[nH]c4cc(Cl)c(C(C)(C)C)cc34)n2C)[C@@H](F)C1` [Example 76, N-((3S,4S)-1-acryloyl-4-fluoropyrrolidin-3-yl)-2-(((5-(tert-butyl)-6-chloro-1H-indazol-3-yl)amino)methyl)-4-chloro-1-methyl-1H-imidazole-5-carboxamide]: 13 nM; `C=CC(=O)N1CC[C@@H](N(C)C(=O)c2cnc(CNc3n[nH]c4cc(Cl)c(C(C)(C)C)cc34)n2C)C1` [Example 77, (R)-N-(1-acryloylpyrrolidin-3-yl)-2-(((5-(tert-butyl)-6-chloro-1H-indazol-3-yl)amino)methyl)-N,1-dimethyl-1H-imidazole-5-carboxamide]: 142 nM. Next, `C=CC(=O)N1C[C@@H](C)[C@@H](NC(=O)c2c(Cl)nc(CNc3n[nH]c4cc(Cl)c(C(C)(C)C)cc34)n2C)C1` [Example 78, N-((3R,4R)-1-acryloyl-4-methylpyrrolidin-3-yl)-2-(((5-(tert-butyl)-6-chloro-1H-indazol-3-yl)amino)methyl)-4-chloro-1-methyl-1H-imidazole-5-carboxamide]: 20 nM.
